Laboratory results taken from patent publication US6784155B1, “Inhibitor and stimulator of stem cell proliferation and uses thereof” (Wellstat Therapeutics Corporation, priority 1996, dated 2004).
No end group written: not given here.

Assays:
CFU-MIX [1] = experiment: CFU-MIX cycling assay in vitro (Ara C kill); format: cell-based, mouse
Protocol: A similar assay can be performed in vitro, using the cycling status of CFU-MIX instead of CFU-S. The assay is performed as described above for the CFU-S assay except that cytosine arabinoside (Ara C, 30 micrograms/ml) is used as the cycle-specific toxic agent instead of high dose tritiated thymidine (see B. I. Lord in Haemopoiesis—A Practical Approach, N. G. Testa and G. Molineux (Eds.), IRL Press 1993; Pragnell et al. in Culture of Hematopoietic Cells, R. I. Freshney, I. B. Pragnell and M. G. Freshney (Eds.), Wiley Liss 1994) and a mouse strain with high endogenous cycling rates (Balb/c) is used instead of testosterone-treated BDFI mice.
24 hours later (Day 1), varying doses of peptide 43-55 or vehicle were injected i.v. Bone marrow was harvested on Day 2 and the […] cycling assay conducted as in Example 14. Specifically, mice were sacrificed and single cell bone marrow suspensions prepared from the femurs. The cells were washed once and the concentration adjusted to 5×10^6 cells/ml in Fischer medium. For each test condition, one milliliter of cells was added to each of two polypropylene tubes. The tubes were incubated at 37° C. for 3 hours without (“Control”) or with (“Experimental”) the appropriate concentration of test substance. At the end of the incubation, 30 μg/ml of cytosine arabinoside (“Ara C” (Sigma)) was added to half of the tubes and the same volume of Fischer's medium was added to the others. The tubes were incubated for a further 1 hour at 37° C., after which they were placed on ice and washed twice with cold Fischer medium.
The cells were readjusted to 5×10^4-10^6/ml in Fischer's medium and 0.5 ml of cell suspension added to 5 ml of Methocult M3430 methylcellulose medium (Stem Cell Technologies, Vancouver, British Columbia). The mixture was vigorously mixed with a vortex and 1 ml was dispensed into each of five 35 mm dishes. The 35 mm dishes were in turn placed in a covered 150 mm dish with one open 35 mm dish containing sterile water. CFU-MIX colonies were counted with the use of an inverted microscope after 7 days of incubation at 37° C.
Differences in colony number between the tubes treated with medium versus the tubes treated with Ara C represent the percentage of cells in cycle under that condition according to the formula:
a=Number of CFU-MIX from tube incubated with medium alone
b=Number of CFU-MIX from tube incubated with Ara C

CFU-GEMM [2] = experiment: CFU-GEMM cycling assay, human umbilical cord blood cells; format: cell-based
Protocol: In order to investigate the ability of purified INPROL from porcine bone marrow to affect cycling on human progenitors, umbilical cord blood cells were obtained. Either the total mononuclear cell fraction obtained after separation on Ficoll or the CD34^+ fraction obtained after fractionation on anti-CD34 affinity columns (CellPro Inc.) was used. Cells were incubated for 48 hours in vitro in the presence of interleukin 3 (IL-3) and stem cell factor (SCF) (100 ng/ml each) in order to ensure that the early stem cells were in cycle. After this preincubation, cycling assays were conducted as described in Example 14 for the mouse except that CFU-GEMM (instead of CFU-MIX) were counted on Day 18 after plating.
The human cord blood CFU-GEMM cycling assay was conducted as in Example 19. Specifically, mononuclear cells were isolated from human umbilical cord blood cells and adjusted to 24×10^4 cells/ml in IMDM tissue culture medium supplemented with 10% FBS, 100 ng/ml kit ligand and 100 ng/ml human IL-3. The cells were incubated for 48 hours at 37° C.
After incubation, cells were washed and resuspended in serun-free NDM at a concentration of 10^6 cells/ml. One ml of cells was added to each of two polypropylene tubes per condition and the cycling assay conducted as in Example 24 for mouse bone marrow. After the Ara C incubation cells were washed with cold NDM and adjusted to 10,000 to 20,000 cells per 0.5 ml IMDM and mixed with 5 ml Methocult H4433 (Stem Cell Technologies). Alternatively, Methocult H4435 methylcellulose medium (Stem Cell Technologies) was used in which case the cell concentration was adjusted to 2500-5000 cells per 0.5 ml IMDM. The cells were plated as in Example 24 and CFU-GEMM colonies scored on days 14-18.

CFU-GEMM [3] = experiment: CFU-GEMM cycling assay, human bone marrow cells; format: cell-based
Protocol: To assess the bioactivity of recombinant p1-97, the CFU-GEMM cycling assay was used as in Example 18:
CD34^+ stem cells were obtained from Poietic Technologies (Gaithersburg, MD) after purification from human bone marrow by means of a CelUPro column. Cells were incubated for 48 hours with kit ligand and IL-3 and used in a CFU-GEMM cycling assay in Example 26.

CFU-GEMM [4] = experiment: CFU-GEMM cycling assay, mobilized human peripheral blood; format: cell-based
Protocol: Peripheral blood was obtained from breast cancer patients undergoing peripheral stem cell mobilization with cyclophosphamide and G-CSF according to standard protocols. Red blood cells were removed with FicolU Hypaque (cells were diluted 1:1 with IMDM and 20 ml layered on top of 16 ml Ficoll and centrifuged at 800 g for 30 minutes; mononuclear cells were removed from the interphase and washed twice in IMDM). In one case mononuclear cells were stored frozen in liquid nitrogen before assay. The mononuclear cells were plated for the CFU-GEMM cycling assay as in Example 26 except that 2.5-5×10^5 cells were plated per dish.

CFU-MIX [5] = experiment: Stimulation of cycling of quiescent murine stem cells, CFU-MIX cycling assay in vitro; format: cell-based, mouse
Protocol: Microgram per milliliter doses of hemoglobin chains, myoglobin and peptides were assayed for stimulation of quiescent stem cells. Bone marrow was obtained from untreated B6D2F1 tested in the CFU-MIX cycling assay as in Example 24. Stem cells isolated from untreated B6D2F1 mice are normally slowly cycling unless stimulated (e.g. by testosterone propionate (cf. Example 1) or chemotherapy such as 5FU (cf. Example 4)) to enter into cycle.

[6] = Table 32, cord blood mononuclear cells, 100 ng/ml
[7] = Table 33, CD34+ stem cells from human bone marrow, concentration printed only as (ng/ml)

Substance: FPHFDLSHGSAQV [Peptide 43-55, amino acids 43-55 of human alpha hemoglobin]
- % Kill (CFU-MIX [1]; Table 17, 1 ng/ml): 11%
- % Kill (CFU-MIX [1]; Table 17, 10 ng/ml): 18%
- % Kill (CFU-MIX [1]; Table 17, 100 ng/ml): 2%
- % Kill (CFU-MIX [1]; Table 18, 100 ng/ml): 5%
- % Kill (CFU-MIX [1]; Table 24, 1 ng/ml): 8%
- % Kill (CFU-MIX [1]; Table 27, Balb/c bone marrow, 1 ng/ml): 8%
- % Kill (CFU-MIX [1]; Table 28, 10 ng/ml, alone): 6%
- % Kill (CFU-MIX [1]; Table 31, 10 ng/ml, alone): 8%
- % Kill (CFU-GEMM [2]; Table 32, cord blood mononuclear cells, 1 ng/ml): 20%
- % Kill (CFU-GEMM [2]; Table 32, cord blood mononuclear cells, 10 ng): 12%
- % Kill (CFU-GEMM [2]; [6]): 5%
- % Kill (CFU-GEMM [3]; [7]): 0%
- % Kill (CFU-GEMM [4]; Table 35, Patient #2, 10 ng/ml): 0%
- % Kill (CFU-GEMM [4]; Table 36, Patient #3, cells stored frozen before assay, 0.1 ng/ml): 23%
- % Kill (CFU-GEMM [4]; Table 36, Patient #3, cells stored frozen before assay, 1.0 ng/ml): 0%
- % Kill (CFU-GEMM [4]; Table 36, Patient #3, cells stored frozen before assay, 10 ng/ml): 15%
- % Kill (CFU-MIX [5]; Table 40, untreated B6D2F1 bone marrow, 10 μg/ml): 26%

Substance: Human alpha chain: purified, non-recombinant human alpha hemoglobin chain isolated by reversed-phase HPLC
- % Kill (CFU-MIX [1]; Table 11, bone marrow from Balb/c mice, 100 ng/ml): −1%
- % Kill (CFU-MIX [1]; Table 13, bone marrow from Balb/c mice, 100 ng/ml): 19%
- % Kill (CFU-MIX [1]; Table 20, Balb/c bone marrow, 100 ng/ml): 12%
- % Kill (CFU-MIX [1]; Table 25, Balb/c bone marrow, 100 ng/ml): 0%
- % Kill (CFU-MIX [1]; Table 28, 100 ng/ml, alone): 0%
- % Kill (CFU-MIX [1]; Table 30, 100 ng/ml): 0%
- % Kill (CFU-MIX [1]; Table 31, 100 ng/ml, alone): 0%
- % Kill (CFU-GEMM [2]; Table 16, cord blood mononuclear cells, 100 ng/ml): −23%
- % Kill (CFU-GEMM [2]; [6]): 0%
- % Kill (CFU-GEMM [3]; Table 21, human bone marrow mononuclear cells, 100 ng/ml): 11%
- % Kill (CFU-GEMM [3]; [7]): 0%
- % Kill (CFU-GEMM [4]; Table 34, Patient #1, 100 ng/ml): 0%
- % Kill (CFU-GEMM [4]; Table 35, Patient #2, concentration printed only as (ng/ml)): 2%
- % Kill (CFU-MIX [5]; Table 37, untreated B6D2F1 bone marrow, 1 μg/ml): 0%
- % Kill (CFU-MIX [5]; Table 37, untreated B6D2F1 bone marrow, 10 μg/ml): 24%
- % Kill (CFU-MIX [5]; Table 37, untreated B6D2F1 bone marrow, 100 μg/ml): 40%
- % Kill (CFU-MIX [5]; Table 39, untreated B6D2F1 bone marrow, 100 μg/ml): 41%
- % Kill (CFU-MIX [5]; Table 40, untreated B6D2F1 bone marrow, 100 μg/ml): 30%
